Values quoted from earlier work, collected in patent US20080160086A1, “Delivery Systems For Calcium” (Scepter Holdings, Inc., priority 2004, published 2008).

Settings: in humans; U.S. Pat. No. 6,582,722

bioavailability: high bioavailability
Substance: calcium picolinate [calcium picolinate chelate]
